# From US12478634B2, “Compositions and methods for treating muscular dystrophy and other disorders” (The Charlotte Mecklenburg Hospital Authority, priority 2016, dated 2025)
# Assays:
# epithelial cells [1] = assay: IIH6 membrane staining of glycosylated α-DG in treated epithelial cells; assay type: cell-based; settings: 3 days culture with agent, vs control
# Description: The white lines represent the membrane staining with the antibody. […] Cells are grown in culture medium and active reagents were added one day later and culture for further 3 days with the described concentration. The cells were then washed, fixed and stained with IIH6 antibody for the expression of glycosylated a-DG. The positive signals present as membrane staining (white lines and circles here) which are only detected in the majority of the treated samples, but hardly seen in the control.
# epithelial cells [2] = assay: IIH6 blot of glycosylated α-DG from treated epithelial cells; assay type: cell-based; settings: 3 days culture with agent
# Description: Lane 1, control untreated cells; Lane 4, cells treated with ribulose-5-phosphate; Lane 5, cells treated with glucose. […] Cells are grown in culture medium and active reagents were added one day later and culture for further 3 days with the active agent. The cells were then collected, homogenized, blotted onto membrane and detected with 1H6 antibody for the expression of glycosylated a-DG. The black large spot represents the expression of the glycosylated a-DG, with higher intensity indicating higher levels.
# [3] = test system: FKRP and LARGE transcripts; assay: Quantitative real-time PCR of FKRP and LARGE transcripts; assay type: in vivo, mouse; settings: cardiac muscle, limb muscle and diaphragm
# Description: Quantitative reverse transcriptase PCR assay. Tissues were collected from heart, diaphragm and tibialis anterior. RNA was extracted using TRIzol (Invitrogen) following the supplied protocol. Final RNA pellet was re-suspended in 20 μl RNAse-nuclease free water. Final RNA concentration was determined using Nanodrop 2000c. One […] of RNA was subsequently converted to cDNA using the High-Capacity RNA-to-cDNA™ Kit (Applied Biosystems) following the supplied protocol. cDNA was then used for quantitative real-time PCR using the mouse FKRP-FAM (Mm00557870 ml) and LARGE-FAM (Mm00521885_ml) taqman assay with primer limited GAPDH-VIC (Mm99999915_g1) as the internal control and TaqMan® Universal Master Mix II, with UNG (Life Technologies). […] Results of FKRP and LARGE transcript were calculated and expressed as 2^−ΔΔCt and compared across tissues and animals.
# MCF-7 cells = assay: FACS for expression of glycosylated alpha-DG after ribitol treatment; assay type: cell-based; settings: MCF-7, 10 mM ribitol for 3 days; untreated controls 45%
# Description: FIG. 1. Fluorescence-activated cell sorting (FACS) for the enhanced expression of glycosylated alpha-DG after ribitol treatment. The breast cancer cell line MCF-7 was seeded in T25 culture flasks and cultured to 75% confluence in DMEM 10% FBS, and then treated with 10 mM ribitol in the same growth medium for 3 days. The cells were then collected by gentle scrapping and washed twice with PBS. The cells were resuspended in 100 microliter PBS and stained with monoclonal antibody IIH6 (Millipore EMD, 1:100 dilution) for 40 minutes and detected with secondary Alexa 594-labeled goat anti-mouse IgM (Invitrogen). The stained cells were washed and then FACS analyzed for the percentage of positive cells and the signal intensity (Alexa594.007). […]
# Fluorescence-activated cell sorting (FACS) was used to show enhanced expression of glycosylated alpha-DG after ribitol treatment. […] The cells were resuspended in 100 microliter PBS and stained with monoclonal antibody IIH6 (Millipore EMD, 1:100 dilution) for 40 minutes and detected with secondary Alexa 594-labeled goat anti-mouse IgM (Invitrogen). The stained cells were washed and then FACS analyzed for the percentage of positive cells and the signal intensity (Alexa594.007). […]
SMILES,glycosylated α-DG membrane staining (IIH6) (epithelial cells [1]),functionally glycosylated alpha-DG on blot (epithelial cells [2]),"FKRP and LARGE transcript levels, treated vs untreated [3]",positive cells for glycosylated alpha-DG (IIH6 antibody) (MCF-7 cells)
Nc1ccn([C@@H]2O[C@H](COP(=O)(O)OP(=O)(O)OC[C@@H](O)[C@@H](O)[C@@H](O)CO)[C@@H](O)[C@H]2O)c(=O)n1 [CDP-ribitol],positive signals are identified in the majority of the cells,,,
OC[C@@H](O)[C@@H](O)[C@@H](O)CO [ribitol],positive signals are identified in the majority of the cells,observed visually,No statistically significant difference,82%
"O=C(CO)[C@H](O)[C@H](O)COP(=O)(O)O [ribulose-5-phosphate, reference compound]",,barely detectable,,
O=C(CO)[C@H](O)[C@H](O)CO [ribulose],positive signals are identified in the majority of the cells,observed visually,,
